Results reported in patent US7595313B2, “Nitric oxide donating diuretic compounds, compositions and methods of use” (NicOx, S.A., priority 2005, dated 2009).
Marks after values point to notes of the source that are not given here.

Columns and labels:
Male Wistar rats = assay: Determination of the diuresis (urine volume over 6 hours after oral dosing); assay type: in vivo, rat; settings: for Urine collected in 6 hours (mL) (30 mg/kg): p.o. 30 mg/kg in 0.5% Methocel
How it was run: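 Male Wistar rats (180-200 g) in metabolic cages, fasted 18 h, water withdrawn 90 min before dosing. Compounds in 0.5% Methocel given p.o. at 30 or 3 mg/kg; urine volume collected over 6 h. Mean ±SEM, n=6 or 7.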

Dahl salt sensitive rats = assay: Blood pressure determination under in vivo conditions in the Dahl salt sensitive rat; settings: Dahl salt sensitive rats on high salt (8%) diet, gavage twice a day, 30 mg/kg HCT equivalent, telemetry, FIG. 1
Procedure: (§1) The effect of subchronic administration of Example 1c and hydrochlorothiazide (HCT) on blood pressure was assessed in telemeterized male Dahl salt sensitive rats (5-6 weeks old; 125-150 g) fed a high salt (8%) diet for 4 weeks. Compounds were administered twice a day for 7 eight days via gavage at 30 mg/kg HCT equivalent in a 0.5% methylcellulose vehicle. Blood pressure was continuously monitored by telemetry and reported as a change in mean arterial blood pressure (MABP) over a 24 h period.

[1] = tested on: Spontaneously Hypertensive rats (SHR); assay: Blood pressure determination under in vivo conditions in the Spontaneously Hypertensive rat; settings: gavage twice a day, 30 mg/kg HCT equivalent, telemetry, FIG. 2
Procedure: as §1, with “17b” for “1c”, “Spontaneously Hypertensive” for “Dahl salt sensitive”, “(SHR; 9-10” for “(5-6”, “250-300 g).” for “125-150 g) fed a high salt (8%) diet for 4 weeks.”

plasma renin = assay: Rat renin inhibition under in vivo conditions (chronic administration via mini-osmotic pumps); settings: for RENIN (Relative Units) DAY 0: Day 0 tail vein blood sample; for RENIN (Relative Units) DAY 0 / RENIN (Relative Units) Day 29: male Wistar rats, N=8; for RENIN (Relative Units) Day 29: terminal plasma day 29 after 28 days s.c. mini-pump, 10 mg/kg/day molar equivalent doses
Procedure: (§2) The effect of chronic administration of Example 51 and hydrochlorothiazide (HCT) on plasma aldosterone and renin levels was tested in male Wistar rats. Compounds were administered via mini-osmotic pumps implanted subcutaneously in the scapular area of the rats using asceptic techniques. Molar equivalent doses of HCT and Example 51 (10 mg/kg/day) in 50% DMSO/PEG300 were delivered for 28 days via Alzet mini-pumps and compared to vehicle treated animals. A 250 μl blood sample was obtained from tail vein cannulae for analysis of aldosterone and plasma renin levels (Day 0). Terminal plasma was collected on day 29 for analysis of aldosterone and plasma renin levels. Plasma renin and aldosterone were measured utilizing commercially available kits (Cayman Chemical; Ann Arbor, Mich. and Alpha Diagnostics; San Antonio, Tex., respectively).

plasma aldosterone = assay: Rat aldosterone inhibition under in vivo conditions (chronic administration via mini-osmotic pumps); settings: for ALDOSTERONE (pg/ml) DAY 0: Day 0 tail vein blood sample; for ALDOSTERONE (pg/ml) DAY 0 / ALDOSTERONE (pg/ml) Day 29: male Wistar rats, N=8; for ALDOSTERONE (pg/ml) Day 29: terminal plasma day 29 after 28 days s.c. mini-pump, 10 mg/kg/day molar equivalent doses
Procedure: as §2

[2] = tested on: isolated rat aorta precontracted with phenylephrine; assay: In vitro relaxant effect in rat aorta
Procedure: The ability of Example 46b to relax isolated rat aorta precontracted with phenylephrine (1 μM) was studied. Example 46b was an efficacious relaxant agent in the rat aorta with an EC50 value of ˜7 μM. The vasorelaxant response elicited by Example 46b was abolished in the presence of ODQ, a potent and selective inhibitor of nitric oxide (NO)-sensitive guanylyl cyclase.

[3] = p.o. 3 mg/kg in 0.5% Methocel, male Wistar rats, 6 hours, mean ± SEM, n=6 or 7
[4] = male Wistar rats, 6 hours, mean ± SEM, n=6 or 7
[5] = day 29, 10 mg/kg/day for 28 days, result in words

| Compound | melting point | Urine collected in 6 hours (mL) (3 mg/kg) (Male Wistar rats; [3]) | Urine collected in 6 hours (mL) (30 mg/kg) (Male Wistar rats; [4]) | Urine collected in 6 hours (mL) (3 mg/kg) (Male Wistar rats; rat, in vivo, po) | other results |
| --- | --- | --- | --- | --- | --- |
| NS(=O)(=O)c1cc2c(cc1Cl)NCN(CC(=O)N(CCCO[N+](=O)[O-])CCCO[N+](=O)[O-])S2(=O)=O [Example 72b, 2H-1,2,4-Benzothiadiazine-2-acetamide, 7-(aminosulfonyl)-6-chloro-3,4-dihydro-N,N-bis[3-(nitrooxy)propyl]-, 1,1-dioxide] | 157 to 160 °C |  |  | 1.8 ± 0.2 |  |
| NS(=O)(=O)c1cc2c(cc1Cl)NC(CC(=O)N(CCO[N+](=O)[O-])CCO[N+](=O)[O-])NS2(=O)=O (stereo not drawn) [Example 49e, 2H-1,2,4-Benzothiadiazine-3-acetamide, 7-(aminosulfonyl)-6-chloro-3,4-dihydro-N,N-bis[2-(nitrooxy)ethyl]-, 1,1-dioxide] | 94 to 97 °C |  |  | 2.5 ± 0.5 |  |
| NS(=O)(=O)c1cc2c(cc1Cl)NCN(CC[C@H](CO[N+](=O)[O-])O[N+](=O)[O-])S2(=O)=O [Example 73b, 2H-1,2,4-Benzothiadiazine-7-sulfonamide, 2-[(3R)-3,4-bis(nitrooxy)butyl]-6-chloro-3,4-dihydro-, 1,1-dioxide] | 158 to 162 °C |  |  | 3.8 ± 0.5 |  |
| NS(=O)(=O)c1cc2c(cc1Cl)NCNS2(=O)=O [HCT, hydrochlorothiazide, reference compound] |  |  |  |  | RENIN (Relative Units) DAY 0 (plasma renin): 5.0 ± 0.6 Relative Units; RENIN (Relative Units) Day 29 (plasma renin): 24.6 ± 1.0 Relative Units; ALDOSTERONE (pg/ml) DAY 0 (plasma aldosterone): 411.5 ± 41.8 pg/mL; ALDOSTERONE (pg/ml) Day 29 (plasma aldosterone): 2081.0 ± 232.1 pg/mL |
| NS(=O)(=O)c1cc2c(cc1C(F)(F)F)NC(c1cc(CO[N+](=O)[O-])cc(CO[N+](=O)[O-])c1)NS2(=O)=O (stereo not drawn) [Example 55, 2H-1,2,4-Benzothiadiazine-7-sulfonamide, 3-[3,5-bis[(nitrooxy)methyl]phenyl]-3,4-dihydro-6-(trifluoromethyl)-, 1,1-dioxide] | > 113 °C (dec.) |  |  | 3.3 ± 0.4 |  |
| NS(=O)(=O)c1cc2c(cc1Cl)NCN(CCCOc1cc(CO[N+](=O)[O-])cc(CO[N+](=O)[O-])c1)S2(=O)=O [Example 70c, 2H-1,2,4-Benzothiadiazine-7-sulfonamide, 2-[3-[3,5-bis[(nitrooxy)methyl]phenoxy]propyl]-6-chloro-3,4-dihydro-, 1,1-dioxide] | 70 to 72 °C |  |  | 3.3 ± 0.4 |  |

The next lines start with results.

| melting point | Compound | Urine collected in 6 hours (mL) (3 mg/kg) (Male Wistar rats; [3]) | Urine collected in 6 hours (mL) (30 mg/kg) (Male Wistar rats; [4]) | Urine collected in 6 hours (mL) (3 mg/kg) (Male Wistar rats; rat, in vivo, po) | other results |
| --- | --- | --- | --- | --- | --- |
| 158 to 161 °C | NS(=O)(=O)c1cc2c(cc1Cl)NC(CCCCCO[N+](=O)[O-])NS2(=O)=O (stereo not drawn) [Example 1c, 2H-1,2,4-Benzothiadiazine-7-sulfonamide, 6-chloro-3,4-dihydro-3-[5-(nitrooxy)pentyl]-, 1,1-dioxide] | 6.6 ± 0.4 | 7.6 ± 0.5 |  | reductions in blood pressure (mean arterial blood pressure) during the treatment period (Dahl salt sensitive rats): approximately 5 mm Hg |
| 171 to 179 °C | NS(=O)(=O)c1cc2c(cc1Cl)NC(CCCCO[N+](=O)[O-])NS2(=O)=O (stereo not drawn) [Example 17b, 2H-1,2,4-Benzothiadiazine-7-sulfonamide, 6-chloro-3,4-dihydro-3-[4-(nitrooxy)butyl]-, 1,1-dioxide] |  |  |  | reductions in blood pressure (mean arterial blood pressure) during the treatment period, larger than with HCT [1]: 5-6 mm Hg |
| 168 to 170 °C | NS(=O)(=O)c1cc2c(cc1Cl)NC(CCCC(=O)NCCO[N+](=O)[O-])=NS2(=O)=O [Example 14, 4H-1,2,4-Benzothiadiazine-3-butanamide, 7-(aminosulfonyl)-6-chloro-N-[2-(nitrooxy)ethyl]-, 1,1-dioxide] |  | 4.0 ± 0.4 |  |  |
| 190 °C | NS(=O)(=O)c1cc2c(cc1Cl)NC(CCCCCO)NS2(=O)=O (stereo not drawn) [Example 24c, 2H-1,2,4-Benzothiadiazine-7-sulfonamide, 6-chloro-3,4-dihydro-3-(5-hydroxypentyl)-, 1,1-dioxide] | 8.6 ± 0.4 | 7.2 ± 0.7 |  |  |
| 165 °C (dec.) | NS(=O)(=O)c1cc2c(cc1C(F)(F)F)NC(CCCO[N+](=O)[O-])NS2(=O)=O (stereo not drawn) [Example 3d, 2H-1,2,4-Benzothiadiazine-7-sulfonamide, 3,4-dihydro-3-[3-(nitrooxy)propyl]-6-(trifluoromethyl)-, 1,1-dioxide] |  | 5.3 ± 0.8 |  |  |
| 120 to 123 °C | NS(=O)(=O)c1cc2c(cc1Cl)NCN(CCCCCO[N+](=O)[O-])S2(=O)=O [Example 46b, 2H-1,2,4-Benzothiadiazine-7-sulfonamide, 6-chloro-3,4-dihydro-2-[5-(nitrooxy)pentyl]-, 1,1-dioxide] | 7.3 ± 0.7 |  |  | vasorelaxant response in the presence of ODQ ([2]; ODQ, inhibitor of NO-sensitive guanylyl cyclase, rat aorta precontracted with phenylephrine (1 μM)): abolished; EC50 ([2]; Rattus norvegicus, aortic rings precontracted with phenylephrine (1 μM), relaxation as % of maximum by papaverine): ~7 µM |
| 161 to 163 °C (dec.) | NS(=O)(=O)c1cc2c(cc1Cl)NCN(CCO[N+](=O)[O-])S2(=O)=O [Example 51, 2H-1,2,4-Benzothiadiazine-7-sulfonamide, 6-chloro-3,4-dihydro-2-[2-(nitrooxy)ethyl]-, 1,1-dioxide] | 8.0 ± 1.1 |  |  | RENIN (Relative Units) DAY 0 (plasma renin): 6.1 ± 0.3 Relative Units; plasma renin measured on day 29 as compared to vehicle or HCT treated rats (plasma renin; [5]): significantly lowered; RENIN (Relative Units) Day 29 (plasma renin): 9.5 ± 0.5^a,b Relative Units; ALDOSTERONE (pg/ml) DAY 0 (plasma aldosterone): 540.8 ± 38.9 pg/mL; plasma aldosterone measured on day 29 as compared to vehicle or HCT treated rats (plasma aldosterone; [5]): significantly lowered; ALDOSTERONE (pg/ml) Day 29 (plasma aldosterone): 1326.6 ± 118.7^c pg/ml |
